The values that follow are results of earlier work, collected in patent US20070049498A1, “Agricultural compositions which enhance performance of herbicides” (priority 2005, published 2007).

The conditions of this series: glyphosate in acid form.

Turning to `O=C(O)CNCP(=O)(O)O` [glyphosate, N-phosphonomethylglycine], the water solubility result is listed as “about 1.2%”.
